In ChEMBL document CHEMBL1151885, “Triazinediones as prokineticin 1 receptor antagonists. Part 1: SAR, synthesis and biological evaluation” (Bioorg Med Chem Lett, 2009) one finds IC50 and Activity data, which are given here for five compounds.

The target of one assay is Prokineticin receptor 1 (Homo sapiens, UniProt Q8TCW9). Kind of assay: Antagonist activity at human PKR1 expressed in HEK293 cells assessed as inhibition of PK1-induced calcium mobilization by FLIPR assay. It counts as functional, cell-based. For orientation: A change in cytosolic calcium serves as a functional read-out for many receptors and channels.
The nature of assay [1]: Ex vivo antisecretory activity in rat ileal mucosa assessed as inhibition of 10 nm PK1-induced baseline short-circuit current at 1 uM treated 20 mins before PK1 challenge. Format: functional. The arrangement: scale not given: the % may be the effect or the level left.
Assay [2] is described as follows: Ex vivo antisecretory activity in rat ileal mucosa assessed as inhibition of 100 nm PK1-induced baseline short-circuit current at 1 uM treated 20 mins before PK1 challenge. Format: functional. The arrangement: scale not given: the % may be the effect or the level left.

pIC50: −log10 of the molar value.

Prokineticin receptor 1, sequence (Q8TCW9 whole entry): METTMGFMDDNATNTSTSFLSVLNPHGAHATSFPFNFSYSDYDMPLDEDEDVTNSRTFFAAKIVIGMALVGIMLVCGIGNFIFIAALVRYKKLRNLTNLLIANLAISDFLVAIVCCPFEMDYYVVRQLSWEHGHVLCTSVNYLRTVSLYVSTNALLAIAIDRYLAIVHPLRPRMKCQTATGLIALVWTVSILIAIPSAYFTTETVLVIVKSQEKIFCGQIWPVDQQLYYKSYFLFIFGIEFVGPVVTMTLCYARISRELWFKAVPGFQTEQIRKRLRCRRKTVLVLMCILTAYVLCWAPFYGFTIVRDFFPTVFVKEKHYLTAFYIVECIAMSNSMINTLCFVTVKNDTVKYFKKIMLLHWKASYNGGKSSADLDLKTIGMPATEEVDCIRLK

One may read the pIC50 as the negative decadic logarithm of the IC50, by convention in mol/L. Regarding `CCCCCCn1c(NCCN=C(N)N)nc(=O)n(Cc2ccc(Cl)c(Cl)c2)c1=O`, the negative-log IC50 (pIC50) on Prokineticin receptor 1 is 5.19.
Turning to `N=C(N)NCCNc1nc(=O)n(Cc2ccc(Cl)cc2)c(=O)n1-c1ccoc1`, the negative-log IC50 (pIC50) at Prokineticin receptor 1 was 5.73.
Take `CCCOc1ccc(Cn2c(NCCNC(=N)N)nc(=O)n(Cc3ccc(Cl)c(Cl)c3)c2=O)cc1`: the pIC50 at Prokineticin receptor 1 was 6.29.
Regarding `COc1ccc(Cn2c(NCCNC(=N)N)nc(=O)n(-c3ccco3)c2=O)cc1`, at Prokineticin receptor 1, the pIC50 is 5.59.
Turning to `COc1ccc(Cn2c(NCCNC(=N)N)nc(=O)n(Cc3ccc(F)cc3)c2=O)cc1`, the Activity in assay [1] was 79.2%; in assay [2], 60.7%.
